Test results from patent publication US6528655B1, “Aromatic derivatives with HIV integrase inhibitory properties” (Pharmacor, Inc., priority 2000, dated 2003).
Like-named read-outs stand apart in the source and are kept apart here.

Target: HIV-1 integrase (Human immunodeficiency virus type 1 group M subtype B, UniProt P04585)
Test: HIV-1 integrase inhibition assay (radiolabeled duplex substrate corresponding to the U5 end of the HIV LTR)
Assay type: biochemical
Protocol: For the purpose of Table 1 to 4, the HIV-1 integrase inhibition assay was carried out following a known procedure (Burke, Jr. T. R. et al., J. Med. Chem. 38, 4171-4178 (1995)). A suitable radiolabeled duplex substrate corresponding to the U5 end of the HIV LTR was used.
For the purposes of Table 1 to 4 the HIV-1 integrase inhibition assay was based on a known procedure (Hazuda, D. J. et al., Nucleic Acids Res. 22 1121-1122 (1994)).

| SMILES | IC50 [nM] | IC50 (Table 3, compounds of formula IV′, read-out: IC50) [nM] |
| --- | --- | --- |
| O=C(/C=C/c1ccc(O)c(O)c1)N[C@@H](Cc1ccc(O)c(O)c1)C(=O)NNC(=O)c1ccccc1O [Example 76, N1-(Nα-Caffeoyl-L-3,4-dihydroxyphenylalanyl)-N2-(2-hydroxybenzoyl)-hydrazine] | 383 |  |
| O=C(N[C@@H](Cc1c[nH]c2ccccc12)C(=O)NNC(=O)c1ccccc1O)c1cc(O)c2cccc(O)c2n1 [Example 77, N1-[Nα-(4,8-Dihydroxyquinoline-2-carbonyl)-L-tryptophanyl]-N2-(2-hydroxybenzoyl)-hydrazine] | 4700 |  |
| O=C(CC[C@H](NC(=O)c1cc(O)c2cccc(O)c2n1)C(=O)NNC(=O)c1ccccc1O)NNC(=O)c1ccccc1O [Example 78, N1-[Nα-(4,8-Dihydroxyquinoline-2-carbonyl)-L-glutamyl]-N2/Nδ-di-(2-hydroxybenzoyl)-dihydrazine] |  | > 9700 |
| CC(C)(C)OC(=O)N[C@@H](Cc1cn(-c2ccc([N+](=O)[O-])cc2[N+](=O)[O-])cn1)C(=O)NNC(=O)c1ccccc1O [Example 79, N1-[Nα-tert-Butoxycarbonyl-Nτ-(2,4-dinitrophenyl)-L-histidinyl]-N2-(2-hydroxybenzoyl)-hydrazine] | > 4000 |  |
| O=C(C=Cc1ccc(O)c(O)c1)NC(Cc1cn(-c2ccc([N+](=O)[O-])cc2[N+](=O)[O-])cn1)C(=O)NNC(=O)c1ccccc1O [Example 80, N1-[Nα-Caffeoyl-Nτ-(2,4-dinitrophenyl)-L-histidinyl]-N2-(2-hydroxybenzoyl)-hydrazine] | 251 |  |
| O=C(C=Cc1ccsc1)NC(Cc1cn(-c2ccc([N+](=O)[O-])cc2[N+](=O)[O-])cn1)C(=O)NNC(=O)c1ccccc1O [Example 81, N1-[Nα-(3-(3′-thiophenyl)acryloyl)-Nτ-(2,4-dinitrophenyl)-L-histidinyl]-N2-(2-hydroxybenzoyl)-hydrazine] | > 10000 |  |
| COc1ccc(OC)c(NC(=O)[C@H](CCC(=O)NC(c2ccccc2)(c2ccccc2)c2ccccc2)NC(=O)/C=C/c2ccc(O)c(O)c2)c1 [Example 82, N-(Nα-Caffeoyl-Nδ-trityl-L-glutaminyl)-2,5-dimethoxyaniline] | 2550 |  |
| COc1ccc(OC)c(NC(=O)[C@H](CCC(=O)NC(c2ccccc2)(c2ccccc2)c2ccccc2)NC(=O)c2ccc(O)c(O)c2)c1 [Example 83, N-[Nα-(3,4-Dihydroxybenzoyl)-Nδ-trityl-L-glutaminyl]-2,5-dimethoxyaniline] | 2250 |  |
| COc1ccc(OC)c(NC(=O)[C@H](CCC(=O)NC(c2ccccc2)(c2ccccc2)c2ccccc2)NC(=O)c2cc3ccccc3[nH]2)c1 [Example 84, N-[Nα-(Indole-2-carbonyl)-Nδ-trityl-L-glutaminyl]-2,5-dimethoxyaniline] | 4100 |  |
| COc1ccc(OC)c(NC(=O)[C@H](CCC(=O)NC(c2ccccc2)(c2ccccc2)c2ccccc2)NC(=O)c2cc(O)c3cccc(O)c3n2)c1 [Example 85, N-[Nα-(4,8-Dihydroxyquinoline-2-carbonyl)-Nδ-trityl-L-glutaminyl]-2,5-dimethoxyaniline] | 2600 |  |
| O=C(/C=C/c1c[nH]c2ccccc12)N[C@@H](Cc1cn(C(c2ccccc2)(c2ccccc2)c2ccccc2)cn1)C(=O)NCCc1ccc(O)c(O)c1 [Example 86, N-[Nα-(3-(3′-Indole)acryloyl)-Nτ-trityl-L-histidinyl]dopamine] | 2000 |  |
| CC(C)(C)OC[C@H](NC(=O)Cc1cccs1)C(=O)NCCc1ccc(O)c(O)c1 [Example 87] | > 10000 |  |
| COc1ccc(OC)c(NC(=O)[C@H](CCC(=O)NC(c2ccccc2)(c2ccccc2)c2ccccc2)NC(=O)c2ccc[nH]2)c1 [Example 88, N-[Nα-(Pyrrole-2-carbonyl)-Nδ-trityl-L-glutaminyl]-2,5-dimethoxyaniline] | > 10000 |  |
| Cc1ccc(C(NC(=O)CC[C@H](NC(=O)/C=C/c2ccc(O)c(O)c2)C(=O)Nc2nccs2)(c2ccccc2)c2ccccc2)cc1 [Example 90, N-(Nα-Caffeoyl-Nδ-methyltrityl-L-glutaminyl)thiazole-2-amine] | 834 |  |
